Where a SMILES comes first, the peptide text is derived from it.
What was measured:
[1] = system: HELA cells (Acc57); assay: Cytotoxicity assay (MTT reduction), HELA cells; type: cell-based; conditions: Hela cells
In short: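 HeLa cells were grown for 24 h, then exposed to peptides at 12.5, 25 and 50 μM in triplicate for 48 h at 37 °C. MTT reduction was read at 595 nm and growth % calculated relative to time-zero wells. LC50 interpolated by linear trend at −50% growth, GI50 at 50%.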

[2] = system: human red blood cells (hRBC); assay: Hemolysis
Protocol: The peptides were tested for their hemolytic activity against human red blood cells (hRBC). Fresh hRBC were washed three times with phosphate buffered saline (PBS) by centrifugation for 10 min at 2000×g. Peptides at a concentration of 100 μM were incubated with 20% v/v hRBC for 1 hour at 37° C. The final erythrocyte concentration was approximately 0.9×10^9 cells per ml. A value of 0% and, respectively, 100% cell lysis was determined by incubation of the hRBC in the presence of PBS alone and, respectively, 0.1% Triton X-100 in H2O. […] The 100% lysis value (OD540H20) gave an OD540 of approximately 1.3-1.8. Percent hemolysis was calculated as follows: (OD540peptide/OD540H20)×100%.

[3] = system: Tryptase, from human lung; assay: Enzymatic assay, tryptase; conditions: at 100 μM
[4] = molecular target: Urokinase from human urine (Homo sapiens, UniProt P00749); assay: Enzymatic assay, urokinase
[5] = molecular target: T1, CathepsinG, from human neutrophils (Homo sapiens, UniProt P08311); assay: Enzymatic assay, cathepsin G; conditions: Cathepsin G IC50
T1 sequence (P08311 21-244): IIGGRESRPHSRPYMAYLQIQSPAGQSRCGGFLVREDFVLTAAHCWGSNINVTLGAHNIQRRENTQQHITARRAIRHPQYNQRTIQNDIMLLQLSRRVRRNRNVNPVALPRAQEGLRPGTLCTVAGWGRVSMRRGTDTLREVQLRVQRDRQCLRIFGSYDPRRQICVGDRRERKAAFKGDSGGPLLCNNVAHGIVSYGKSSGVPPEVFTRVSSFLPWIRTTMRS

[6] = molecular target: Trypsin, from human pancreas (Homo sapiens, UniProt P07477); assay: Enzymatic assay, trypsin; conditions: at 100 μM
[7] = molecular target: T2, Chymase, from human skin (Homo sapiens, UniProt P23946); assay: Enzymatic assay, chymase
T2 sequence (P23946 22-247): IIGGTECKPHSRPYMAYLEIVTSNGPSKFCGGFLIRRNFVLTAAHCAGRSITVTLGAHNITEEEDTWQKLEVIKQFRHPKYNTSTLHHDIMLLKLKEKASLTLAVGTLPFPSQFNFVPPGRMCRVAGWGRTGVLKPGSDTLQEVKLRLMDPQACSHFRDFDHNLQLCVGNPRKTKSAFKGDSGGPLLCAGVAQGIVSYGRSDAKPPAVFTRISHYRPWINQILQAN

[8] = molecular target: T3, Elastase from human neutrophils (Homo sapiens, UniProt P08246); assay: Enzymatic assay, elastase; conditions: Elastase IC50
T3 sequence (P08246 30-267): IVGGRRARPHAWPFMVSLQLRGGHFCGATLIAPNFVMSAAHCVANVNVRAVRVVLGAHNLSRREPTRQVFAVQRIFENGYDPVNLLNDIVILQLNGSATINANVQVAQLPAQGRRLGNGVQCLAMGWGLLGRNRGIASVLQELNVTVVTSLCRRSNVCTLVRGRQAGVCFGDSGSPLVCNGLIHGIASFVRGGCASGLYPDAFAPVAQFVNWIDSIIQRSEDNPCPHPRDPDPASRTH

[9] = molecular target: Thrombin, from Human Plasma (Homo sapiens, UniProt P00734); assay: Enzymatic assay, thrombin
[10] = molecular target: Chymotrypsin, from human pancreas (Homo sapiens, UniProt P17538); assay: Enzymatic assay, chymotrypsin; conditions: at 100 μM
Chymotrypsin, from human pancreas, sequence (P17538 19-263): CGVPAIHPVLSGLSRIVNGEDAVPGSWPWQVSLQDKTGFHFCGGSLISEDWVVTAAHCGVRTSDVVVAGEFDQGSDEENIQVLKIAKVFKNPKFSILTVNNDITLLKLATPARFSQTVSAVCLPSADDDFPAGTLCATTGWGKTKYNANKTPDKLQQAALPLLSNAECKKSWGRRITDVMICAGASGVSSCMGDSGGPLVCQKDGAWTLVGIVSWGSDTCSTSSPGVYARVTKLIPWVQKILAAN

Structure (SMILES)	Cytotoxicity LC50/GI50 Hela cells [1]	Hemolysis at 100 μM % [2]	Tryptase at 100 μM % [3]	Urokinase at 100 μM % [4]	IC50 [5]	Trypsin at 100 μM % [6]	Chymase at 100 μM % [7]	IC50 [8]	Thrombin at 100 μM % [9]	Chymotrypsin at 100 μM % [10]
CCCC[C@@H]1NC(=O)[C@@H]2CCCN2C(=O)[C@H]2CCCN2C(=O)[C@H]([C@@H](C)O)NC(=O)[C@@H]2CSSC[C@H](NC1=O)C(=O)N[C@@H]([C@@H](C)O)C(=O)N[C@@H](CCCCN)C(=O)N[C@@H](CO)C(=O)N[C@@H](CC(=O)O)C(=O)N1CCC[C@H]1C(=O)N1CCC[C@H]1C(=O)N[C@@H]([C@@H](C)CC)C(=O)N2 [Ex. 42] (HELM PEPTIDE1{[Nle].C.T.K.S.D.P.P.I.C.T.[dP].P}$PEPTIDE1,PEPTIDE1,2:R3-10:R3|PEPTIDE1,PEPTIDE1,1:R1-13:R2$$$V2.0)	87 µM	0%	0%	7%	0.046 µM	–	–	–	–	–
CC[C@H](C)[C@@H]1NC(=O)[C@@H]2CCCN2C(=O)[C@@H]2CCCN2C(=O)[C@H](CC(=O)O)NC(=O)[C@H](CO)NC(=O)[C@H](CCCCN)NC(=O)[C@H]([C@@H](C)O)NC(=O)[C@@H]2CSSC[C@H](NC1=O)C(=O)N[C@@H](Cc1ccc(O)cc1)C(=O)N1CCC[C@@H]1C(=O)N1CCC[C@H]1C(=O)N[C@@H](CC1CCCCC1)C(=O)N2 [Ex. 36] (HELM PEPTIDE1{[Cha].C.T.K.S.D.P.P.I.C.Y.[dP].P}$PEPTIDE1,PEPTIDE1,2:R3-10:R3|PEPTIDE1,PEPTIDE1,1:R1-13:R2$$$V2.0)	83 µM	0%	73.3%	0%	0.041 µM	–	–	–	–	–
CC[C@H](C)[C@@H]1NC(=O)[C@@H]2CCCN2C(=O)[C@@H]2CCCN2C(=O)[C@H](CC(=O)O)NC(=O)[C@H](CO)NC(=O)[C@H](CCCCN)NC(=O)[C@H]([C@@H](C)O)NC(=O)[C@@H]2CSSC[C@H](NC1=O)C(=O)N[C@@H](CC(N)=O)C(=O)N1CCC[C@@H]1C(=O)N1CCC[C@H]1C(=O)N[C@@H](C1CCCCC1)C(=O)N2 [Ex. 37] (HELM PEPTIDE1{[O=C([C@@H](N[*:1])C1CCCCC1)[*:2]].C.T.K.S.D.P.P.I.C.N.[dP].P}$PEPTIDE1,PEPTIDE1,2:R3-10:R3|PEPTIDE1,PEPTIDE1,1:R1-13:R2$$$V2.0)	92 µM	0.1%	56%	5%	0.035 µM	–	–	–	–	–
CC[C@H](C)[C@@H]1NC(=O)[C@@H]2CCCN2C(=O)[C@H]2CCCN2C(=O)[C@H](CCCNC(=N)N)NC(=O)[C@@H]2CSSC[C@H](NC1=O)C(=O)N[C@@H]([C@@H](C)O)C(=O)N[C@@H](CCCCN)C(=O)N[C@@H](CO)C(=O)N[C@@H](CC(=O)O)C(=O)N1CCC[C@H]1C(=O)N1CCC[C@H]1C(=O)N[C@@H](CCC(N)=O)C(=O)N2 [Ex. 17] (HELM PEPTIDE1{I.C.T.K.S.D.P.P.Q.C.R.[dP].P}$PEPTIDE1,PEPTIDE1,2:R3-10:R3|PEPTIDE1,PEPTIDE1,1:R1-13:R2$$$V2.0)	94 µM	0.1%	90.4%	–	0.055 µM	90.0%	27.6%	> 100 µM	0%	16%
C[C@@H](O)[C@@H]1NC(=O)[C@@H]2CSSC[C@H](NC(=O)[C@H](Cc3ccc(O)cc3)NC(=O)[C@@H]3CCCN3C(=O)[C@@H]3CCCN3C(=O)[C@H](CC(=O)O)NC(=O)[C@H](CO)NC(=O)[C@H](CCCCN)NC1=O)C(=O)N[C@@H](Cc1ccc(O)cc1)C(=O)N1CCC[C@@H]1C(=O)N1CCC[C@H]1C(=O)N[C@@H](C1CCCCC1)C(=O)N2 [Ex. 65] (HELM PEPTIDE1{[O=C([C@@H](N[*:1])C1CCCCC1)[*:2]].C.T.K.S.D.P.P.Y.C.Y.[dP].P}$PEPTIDE1,PEPTIDE1,2:R3-10:R3|PEPTIDE1,PEPTIDE1,1:R1-13:R2$$$V2.0)	84 µM	0%	57%	1%	0.047 µM	–	–	–	–	–
